Measurements reported in patent US20260345624A1, “TREATMENT OF PROSTATE CANCER BY PROMOTING PDE4D7” (KONINKLIJKE PHILIPS N.V., priority 2022, published 2026).
Entries after “also recorded” stand apart in the source; their conditions may differ.

Experiments:
LNCaP WT cells = test: xCELLigence real-time proliferation of WT LNCaP cells; format: cell-based; details: for WT LNCaP growth, strongest effect: enzalutamide 1 μM and above; for WT LNCaP cell proliferation: enzalutamide 0.1-30 μM, all concentrations tested
Experimental: (§1) xCELLigence Real-Time Cell Analysis (RTCA)
(§2) Real-time cell growth was analysed using the xCELLigence RTCA system (Agilent), which measures real-time cell adhesion across gold microelectrode biosensors on 96 well electronic plates (E-plates) within a 37 °C incubator with 5% CO2. Cellular adhesion influences electrical impedance which is converted into the cell index (CI) via RTCA software. Initial background measurements were recorded with 100 μL RPMI 1640 medium, followed by addition of 100 μL LNCaP cell suspension (10,000 cells/wells) for measurement of CI over time. Approximately 24 h after seeding, cells were treated with specified concentrations of drugs. Negative controls containing either 0.1% DMSO or untreated cells were also included. CI was transformed to normalised CI via the RTCA software to timepoint of treatment.

P1-TET4D7 LNCaP cells = test: Real-time growth of P1 LNCaP cells with Tet-On inducible PDE4D7; format: cell-based; details: enzalutamide 10 μM, Tet-On doxycycline-induced PDE4D7
Experimental: as §1, §2
PDE4D7 (GenBank ID AF536976) sequence was first subcloned into lentivirus vectors with CMV (LVR-1001-pLV-CMV-PGK-Puro) and then into Tet-On inducible vector pLV-tet-on-3G-P2A-Puro, LNCaP-shRNA P1 cells were maintained in RPMI1640 medium supplemented with 10% (v/v) foetal bovine serum, 1% (v/v) L-Glutamine and 1% (v/v) penicillin/streptomycin, and infected with Tet-On inducible lentivirus at MOI=5-10 in the presence of 8 μg/ml polybrene. […]

[1] = system: PDE4D7-knockdown LNCaP P1 cells; test: xCELLigence real-time proliferation of PDE4D7-knockdown P1 LNCaP cells; format: cell-based
Text: Stable shRNA-mediated lentiviral transduced LNCaP cell lines were generated by AMSBIO (Table 1). Briefly, shRNA-PDE4D7 was cloned into a lentivector and delivered into LNCaP clone FGC cells (ATCC) via lentivirus (MOI=10). Cells were maintained in puromycin-supplemented medium prior to selection of stably transduced cells. A stable shRNA-PDE4D7 LNCaP cell line was then re-transduced with lentivirus delivering PDE4D7 to generate a re-introduced cell line. Scrambled-shRNA was used as a control. All cells were cultured in RPMI 1640 medium (Gibco D), supplemented with 10% (v/v) foetal bovine serum, 1% (v/v) L-Glutamine and 1% (v/v) penicillin/streptomycin, and stored within a 37 °C incubator with 5% CO2.
as §1, §2

cAMP production = details: Miller et al., 2013; cited from earlier work
PCa = details: He et al., 2019; cited from earlier work

| Compound | WT LNCaP growth, strongest effect (LNCaP WT cells) | WT LNCaP growth, strongest effect (LNCaP WT cells; listed as Enzalutamide) | WT LNCaP cell proliferation (LNCaP WT cells) | WT LNCaP cell proliferation (LNCaP WT cells; listed as Enzalutamide) | sensitivity to enzalutamide upon PDE4D7 re-expression (P1-TET4D7 LNCaP cells) | P1 LNCaP growth vs DMSO control ([1]; enzalutamide, higher concentrations up to 30 μM) | P1 LNCaP proliferation ([1]; enzalutamide, increasing doses 0-30 μM) | resistance to enzalutamide upon PDE4D7 knockdown ([1]; overall conclusion, 0-30 μM) | cAMP production (cAMP production) | growth of WT cells (LNCaP WT cells; metformin, all concentrations (0-25 μM)) | growth inhibition independent of PDE4D7 expression, WT (LNCaP WT cells; summary statement, WT vs P1) | overall survival/time to recurrence in PCa (PCa) | treatment/reduction of PCa tumours (PCa) | growth inhibition of P1 cells ([1]; metformin, only at highest concentrations tested (0-25 μM)) | growth inhibition independent of PDE4D7 expression, P1 ([1]; summary statement, WT vs P1) |
| --- | --- | --- | --- | --- | --- | --- | --- | --- | --- | --- | --- | --- | --- | --- | --- |
| CNC(=O)c1ccc(N2C(=S)N(c3ccc(C#N)c(C(F)(F)F)c3)C(=O)C2(C)C)cc1F [enzalutamide] | least growth | most profound effects | significant decrease in WT LNCaP cell proliferation | significant decrease in WT LNCaP cell proliferation at all concentrations tested | restored sensitivity to enzalutamide; also recorded: rescued upon PDE4D7 re-expression | significantly enhanced growth; also recorded: increased growth at higher concentrations | minimal reductions in cell proliferation | confers resistance to anti-androgens such as enzalutamide | – | – | – | – | – | – | – |
| CN(C)C(=N)N=C(N)N [metformin, Metformin] | – | – | – | – | – | – | – | – | decrease CAMP production | significantly reducing growth of WT cells at all concentrations | reduce tumor growth independent of PDE4D7 expression levels; also recorded: inhibit LNCaP cell growth irrespective of PDE4D7 expression status | enhance overall survival/time to recurrence | no evidence of it treating/reducing the PCa tumours itself | significant inhibition was only observed in P1 cells at highest concentrations tested | reduce tumor growth independent of PDE4D7 expression levels; also recorded: inhibit LNCaP cell growth irrespective of PDE4D7 expression status |
